Values quoted from earlier work as cited in patent US20150202168A1, “ORAL FILM FORMULATIONS COMPRISING DAPOXETINE AND TADALAFIL” (Sanovel Ilac Sanayi Ve Ticaret Anonim Sirketi, priority 2012, published 2015).

Tests used:
human body = details: studies conducted
[1] = following oral administration
[2] = Int J Impot Res. 2006; 18(1):104-10

Mogroside
toxicity to human body (human body): not toxic

CN1CC(=O)N2[C@H](c3ccc4c(c3)OCO4)c3[nH]c4ccccc4c3C[C@@H]2C1=O [Tadalafil, (6R-trans)-6-(1,3-benzodioxol-5-yl)-2,3,6,7,12,12a-hexahydro-2-methyl-pyrazino[1′,2′:1,6]pyrido[3,4-b]indole-1,4-dione]
solubility in water: poorly soluble

CN(C)[C@@H](CCOc1cccc2ccccc12)c1ccccc1 [dapoxetine]
binding to the plasma proteins [1]: almost completely | interactions with PDE5 inhibitors [2]: does not have pharmaceutical interactions
